Compound,boiling point,melting point,other results
CNC(=O)O/N=C/C(C)(C)S(C)=O (stereo unspecified),,,log10 Koc (L/kg): 0.56; log10 vapour pressure (mmHg): -4
Clc1ccc(-c2ccc(Cl)c(Cl)c2Cl)c(Cl)c1,,,log10 Henry constant (atm·m³/mol): -4.18
CCC/C=C/CCC,126 °C,-104 °C,log10 vapour pressure (mmHg): 1.25
CC(=O)CC(c1ccco1)c1c(O)c2ccccc2oc1=O (stereo unspecified),,124 °C,
ONc1ccccc1,,83.5 °C,
c1ccc(CSc2ccccc2)cc1,,43.5 °C,
C[C@]12CC[C@H](O)C[C@@H]1CC[C@@H]1[C@@H]2[C@@H](O)C[C@@]2(C)[C@H]1CC[C@]2(O)C(=O)CO,,244 °C,
NC(=O)C(CCN1CCCCCC1)(c1ccccc1)c1ccccc1,,142 °C,
CC(=O)CO,146 °C,-17 °C,ready biodegradability: readily biodegradable
O=C(O)CC(CC(=O)O)C(=O)O,,166 °C,
COCCc1ccccn1,203 °C,,
C=C(C)CCCCCCCCC,,,log10 biotransformation half-life (days) (fish): 0.17
NCC1CCC(C(=O)O)CC1 (stereo unspecified),,,ready biodegradability: not readily biodegradable
C#CCCO,129 °C,-63.6 °C,
C=C(C)C(C)C,55.6 °C,-157 °C,log10 vapour pressure (mmHg): 2.4
Cc1c2ccccc2cc2ccccc12,,81.5 °C,log10 Koc (L/kg): 4.81; log10 biodegradation half-life (days): 2.42; log10 vapour pressure (mmHg): -4.4; log10 biotransformation half-life (days) (fish): 0.23
CCc1ccc(O)cc1,218 °C,45 °C,log10 Henry constant (atm·m³/mol): -6.11; log10 vapour pressure (mmHg): -1.43; ready biodegradability: readily biodegradable
NNS(=O)(=O)c1ccccc1,,102 °C,
CCC(CO)O[N+](=O)[O-] (stereo unspecified),,,log10 Henry constant (atm·m³/mol): -6.78
O=C(O)CCOc1cccc2ccccc12,,146 °C,
COC(=O)C(C)Oc1ccc(Oc2ncc(C(F)(F)F)cc2Cl)cc1 (stereo unspecified),,56 °C,log10 Koc (L/kg): 1.88; log10 vapour pressure (mmHg): -5.22; log10 BCF (fish): 1.23; log10 biotransformation half-life (days) (fish): -1.08
CC(CBr)c1ccccc1 (stereo unspecified),188 °C,-59.3 °C,
C#CCI,115 °C,,
CC(C)OC(=O)COc1ccc(Cl)cc1Cl,,5 °C,log10 vapour pressure (mmHg): -3.63
C=CCSC#N,161 °C,,

Compound,boiling point,melting point,other results
FC1(F)C(Cl)=C(Cl)C(F)(F)C1(F)F,90.7 °C,-106 °C,
COC(=O)c1cccc2ccccc12,,59.5 °C,
CCCCCCCCCCCc1ccccc1,316 °C,-5 °C,log10 vapour pressure (mmHg): -3.62
CC(=O)OCC(=O)[C@H]1CC[C@H]2[C@@H]3CC=C4C[C@@H](O)CC[C@]4(C)[C@H]3CC[C@]12C,,184 °C,
CCCC(=O)CC,124 °C,-55.5 °C,log10 vapour pressure (mmHg): 1.14; ready biodegradability: not readily biodegradable
COc1ccc2[nH]ccc2c1,,57 °C,
CCCCCCCCCCCCCCCCCCCCCCCCCCCCCCCCCCCC,,76.5 °C,ready biodegradability: readily biodegradable
CNC(=O)NC,269 °C,108 °C,ready biodegradability: not readily biodegradable
C=CC(=O)OCC(CC)(COC(=O)C=C)COC(=O)C=C,,,ready biodegradability: not readily biodegradable
Cc1nc(NS(=O)(=O)c2ccc(N)cc2)oc1C,,193 °C,
CCC(C)C(C)C(C)CC (stereo unspecified),162 °C,,
Clc1ccc2cc(Cl)ccc2c1,285 °C,140 °C,
Clc1ccc(C(Cl)Cl)c(Cl)c1Cl,278 °C,84 °C,
CC(COc1ccccc1)NC(C)C(O)c1ccc(O)cc1 (stereo unspecified),,103 °C,
C=COC(=O)CCCCC,,,ready biodegradability: readily biodegradable
c1ccc2c(c1)ccc1[nH]c3ccc4ccccc4c3c12,,158 °C,log10 Koc (L/kg): 6.03
COc1cc(O)c2c(=O)c(O)c(-c3ccc(O)c(O)c3)oc2c1,,295 °C,
CC(C)OC(=O)C(C)O (stereo unspecified),167 °C,,
CN1CSCSC1,185 °C,65 °C,
O=C(C=Cc1ccco1)C=Cc1ccco1,,60.5 °C,
CCCCC(C)(O)CC (stereo unspecified),163 °C,-83 °C,
O=C(O)c1ccc(I)cc1,,270 °C,
Nc1ccc(Nc2ccc([N+](=O)[O-])cc2[N+](=O)[O-])cc1,,188 °C,log10 vapour pressure (mmHg): -10.2
CC(O)COC(C)C (stereo unspecified),138 °C,,

# — the OPERA property sets (Mansouri et al. 2018)
